# Reference: patent US20260176265A1 (Cancer Research Technology Limited, priority 2022, published 2026)
# What was measured:
# [1] = target: CtermHisTag-mEGFR Triple Mutant - C797S, L858R, T790M (Homo sapiens, UniProt P00533, C797S/L858R/T790M); experiment: TR-FRET probe displacement assay, EGFR triple mutant; type: binding; conditions: T790M 1.25 nM, probe 100 nM, 30 mins room temperature
# How it was run: (§1)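 Ten-point compound series, 100000 to 3 nM final, tested against His-tagged EGFR (wild type or C797S/L858R/T790M) for probe displacement. TR-FRET read at Ex337 nm, Em490/520 nm; run in technical replicate, biological duplicate.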
# [2] = target: T1, Phospho-EGFR (Tyr1068) in H1975 C797S cells (Homo sapiens, UniProt P00533, C797S/L858R/T790M); experiment: HTRF pEGFR/total EGFR assay in H1975 C797S cells; type: cell-based; conditions: H1975 C797S cells (CRISPR), compound 3 hours, ratio pEGFR/total EGFR
# T1 construct: endogenous in cells; host or cells: H1975 C797S (CRISPR-edited in house from ATCC CRL-5908)
# How it was run: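 H1975 cells carrying CRISPR-engineered EGFR C797S (with L858R/T790M) were exposed to compounds for 3 h at 0.1% DMSO, in duplicate. Lysates were read with HTRF kits for pEGFR Tyr1068 and total EGFR at 665/620 nm. Values are the pEGFR/total EGFR ratio as percent of the 0 uM control.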
# [3] = target: T2, Phospho-EGFR (Tyr1068) in A431 cells (Homo sapiens, UniProt P00533); experiment: HTRF pEGFR/total EGFR assay in A431 cells (EGF stimulated); type: cell-based; conditions: compound 2.5 hours then 100 ng/ml EGF 30 mins, ratio pEGFR/total EGFR
# T2 construct: endogenous in cells; host or cells: A431
# How it was run: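 A431 cells pretreated with compounds 2.5 h (0.1% DMSO), then stimulated with 100 ng/ml EGF for 30 min. Lysates assayed by HTRF for phospho-EGFR (Tyr1068) and total EGFR, read at 665/620 nm. Values are pEGFR/total EGFR ratio as percentage of 0uM control.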
# [4] = target: CtermHisTag-mEGFR Wild type (Homo sapiens, UniProt P00533); experiment: TR-FRET probe displacement assay, EGFR wild type; type: binding; conditions: EGFR wild type 1.25 nM, probe 100 nM, 30 mins room temperature
# How it was run: as §1
# [5] = target: T3, Phospho-EGFR (Tyr1068) in H1975 cells (Homo sapiens, UniProt P00533, L858R/T790M); experiment: HTRF pEGFR/total EGFR assay in H1975 cells; type: cell-based; conditions: compound 3 hours, ratio pEGFR/total EGFR
# T3 construct: host or cells: H1975
# How it was run: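 H1975 cells (EGFR L858R/T790M) adhered 24 h, then compound-treated for 3 h in duplicate, 0.1% DMSO final. Lysates read by HTRF at 665/620 nm for phospho-Tyr1068 and total EGFR. Value is pEGFR/total EGFR ratio as % of 0 uM control.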
# T3 sequence (P00533 25-1210 T790M/L858R): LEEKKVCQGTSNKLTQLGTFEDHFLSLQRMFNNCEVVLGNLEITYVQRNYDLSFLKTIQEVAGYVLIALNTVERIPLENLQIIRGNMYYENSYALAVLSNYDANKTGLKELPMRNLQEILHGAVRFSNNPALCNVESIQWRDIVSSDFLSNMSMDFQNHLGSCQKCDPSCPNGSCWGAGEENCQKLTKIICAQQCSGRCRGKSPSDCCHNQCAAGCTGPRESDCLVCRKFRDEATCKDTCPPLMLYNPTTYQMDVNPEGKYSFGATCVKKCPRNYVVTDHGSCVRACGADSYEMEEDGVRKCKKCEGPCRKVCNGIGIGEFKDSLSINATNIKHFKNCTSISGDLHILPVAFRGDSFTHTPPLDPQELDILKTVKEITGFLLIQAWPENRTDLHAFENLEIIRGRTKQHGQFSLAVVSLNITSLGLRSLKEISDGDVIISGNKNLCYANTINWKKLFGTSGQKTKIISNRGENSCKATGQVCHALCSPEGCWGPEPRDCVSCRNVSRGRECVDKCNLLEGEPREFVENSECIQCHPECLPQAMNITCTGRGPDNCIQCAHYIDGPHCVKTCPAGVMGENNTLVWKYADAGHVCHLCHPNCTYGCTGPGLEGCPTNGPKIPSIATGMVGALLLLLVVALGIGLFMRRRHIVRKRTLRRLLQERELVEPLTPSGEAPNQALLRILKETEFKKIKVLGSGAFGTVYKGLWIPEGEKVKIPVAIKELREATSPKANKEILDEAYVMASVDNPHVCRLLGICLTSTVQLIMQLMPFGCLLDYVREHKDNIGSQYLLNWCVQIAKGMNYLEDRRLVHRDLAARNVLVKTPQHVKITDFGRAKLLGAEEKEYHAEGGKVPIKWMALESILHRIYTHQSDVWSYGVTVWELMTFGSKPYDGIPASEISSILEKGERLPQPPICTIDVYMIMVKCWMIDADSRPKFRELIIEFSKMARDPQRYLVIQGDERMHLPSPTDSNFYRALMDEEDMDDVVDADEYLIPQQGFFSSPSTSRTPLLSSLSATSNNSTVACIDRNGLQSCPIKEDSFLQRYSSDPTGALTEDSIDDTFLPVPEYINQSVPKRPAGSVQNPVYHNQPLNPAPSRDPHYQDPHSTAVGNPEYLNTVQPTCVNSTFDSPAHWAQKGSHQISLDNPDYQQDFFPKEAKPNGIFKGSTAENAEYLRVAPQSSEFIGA
# T1 sequence (P00533 25-1210 T790M/C797S/L858R): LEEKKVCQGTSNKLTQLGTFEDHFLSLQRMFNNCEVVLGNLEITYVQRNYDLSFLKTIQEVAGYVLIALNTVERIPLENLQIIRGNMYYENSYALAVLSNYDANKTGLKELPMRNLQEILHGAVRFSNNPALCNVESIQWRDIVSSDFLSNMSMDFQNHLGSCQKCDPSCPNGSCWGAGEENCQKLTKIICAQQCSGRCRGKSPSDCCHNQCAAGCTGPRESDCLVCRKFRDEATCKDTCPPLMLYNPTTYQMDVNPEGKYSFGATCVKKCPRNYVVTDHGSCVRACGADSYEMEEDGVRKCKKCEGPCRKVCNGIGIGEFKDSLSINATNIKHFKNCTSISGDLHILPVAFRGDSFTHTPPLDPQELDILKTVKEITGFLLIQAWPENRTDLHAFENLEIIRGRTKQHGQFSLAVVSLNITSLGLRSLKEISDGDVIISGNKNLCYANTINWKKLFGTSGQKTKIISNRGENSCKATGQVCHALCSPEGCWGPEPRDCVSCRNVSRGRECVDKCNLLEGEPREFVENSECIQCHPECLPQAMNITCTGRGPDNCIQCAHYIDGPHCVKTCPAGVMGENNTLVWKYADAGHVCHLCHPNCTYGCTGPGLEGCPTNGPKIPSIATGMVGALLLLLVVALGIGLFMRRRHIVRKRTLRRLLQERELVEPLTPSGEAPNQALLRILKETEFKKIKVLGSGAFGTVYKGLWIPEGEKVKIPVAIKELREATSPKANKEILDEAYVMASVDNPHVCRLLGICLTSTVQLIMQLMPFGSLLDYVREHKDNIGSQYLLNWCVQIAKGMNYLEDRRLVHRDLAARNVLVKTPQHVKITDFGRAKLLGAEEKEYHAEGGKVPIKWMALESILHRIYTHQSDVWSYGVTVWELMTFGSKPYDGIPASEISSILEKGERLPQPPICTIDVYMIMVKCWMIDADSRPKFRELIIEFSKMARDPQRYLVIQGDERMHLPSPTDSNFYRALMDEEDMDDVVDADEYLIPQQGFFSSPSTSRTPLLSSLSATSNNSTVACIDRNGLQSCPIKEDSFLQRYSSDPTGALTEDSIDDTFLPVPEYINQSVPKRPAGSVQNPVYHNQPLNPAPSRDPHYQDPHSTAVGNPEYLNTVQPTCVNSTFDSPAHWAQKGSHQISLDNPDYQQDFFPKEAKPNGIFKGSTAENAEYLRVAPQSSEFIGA
# CtermHisTag-mEGFR Triple Mutant - C797S, L858R, T790M, sequence (P00533 25-1210 T790M/C797S/L858R): as above
# T2 sequence (P00533 25-1210): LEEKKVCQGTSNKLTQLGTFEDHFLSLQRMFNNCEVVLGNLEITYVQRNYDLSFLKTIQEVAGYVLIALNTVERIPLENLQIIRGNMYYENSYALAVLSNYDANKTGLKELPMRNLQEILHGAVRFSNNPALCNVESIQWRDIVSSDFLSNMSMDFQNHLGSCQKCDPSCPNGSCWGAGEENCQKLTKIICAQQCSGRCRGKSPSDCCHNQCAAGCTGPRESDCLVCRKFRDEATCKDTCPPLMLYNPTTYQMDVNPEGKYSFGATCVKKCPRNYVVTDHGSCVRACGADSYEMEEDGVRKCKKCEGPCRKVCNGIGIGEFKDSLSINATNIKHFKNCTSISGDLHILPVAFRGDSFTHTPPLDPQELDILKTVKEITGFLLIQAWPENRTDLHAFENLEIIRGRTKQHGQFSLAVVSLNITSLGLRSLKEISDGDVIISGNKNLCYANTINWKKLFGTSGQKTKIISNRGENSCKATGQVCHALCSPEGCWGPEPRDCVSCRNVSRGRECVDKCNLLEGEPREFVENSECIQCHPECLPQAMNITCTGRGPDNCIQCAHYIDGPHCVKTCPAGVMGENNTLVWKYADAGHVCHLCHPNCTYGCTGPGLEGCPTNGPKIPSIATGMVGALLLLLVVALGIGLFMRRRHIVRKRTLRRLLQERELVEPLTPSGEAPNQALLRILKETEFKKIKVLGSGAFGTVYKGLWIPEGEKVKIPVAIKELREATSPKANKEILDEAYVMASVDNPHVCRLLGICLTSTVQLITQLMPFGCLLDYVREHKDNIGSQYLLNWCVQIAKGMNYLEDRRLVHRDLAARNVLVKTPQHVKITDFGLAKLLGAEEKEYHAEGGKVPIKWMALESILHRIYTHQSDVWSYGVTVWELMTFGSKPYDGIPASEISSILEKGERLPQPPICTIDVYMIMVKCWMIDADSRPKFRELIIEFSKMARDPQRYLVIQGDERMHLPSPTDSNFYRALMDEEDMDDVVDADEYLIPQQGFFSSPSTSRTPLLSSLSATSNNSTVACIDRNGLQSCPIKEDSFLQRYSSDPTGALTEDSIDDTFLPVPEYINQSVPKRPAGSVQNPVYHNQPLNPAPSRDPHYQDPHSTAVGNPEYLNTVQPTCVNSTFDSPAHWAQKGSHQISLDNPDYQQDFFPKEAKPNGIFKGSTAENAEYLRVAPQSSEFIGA
IC50 [1] [µM],IC50 [2] [µM],IC50 [3] [µM],IC50 [4] [µM],IC50 [5] [µM],Compound
0.02 to 0.1,> 3,> 3,1 to 10,0.5 to 1,"C#Cc1cc(N2C(=O)NC[C@H]2COC)nc2nc(Nc3ccc(N4CCN(C)CC4)cc3)ncc12 [Example 101, (5S)-1-(5-Ethynyl-2-{[4-(4-methylpiperazin-1-yl)phenyl]amino}pyrido[2,3-d]pyrimidin-7-yl)-5-(methoxymethyl)imidazolidin-2-one]"
< 0.02,> 3,> 3,1 to 10,> 3,"C#Cc1cc(N2C(=O)N(C)CC2C(C)C)nc2nc(Nc3ccc(N4CCN(C)CC4)cc3)ncc12 (centres unmarked) [Example 102, 3-(5-Ethynyl-2-{[4-(4-methylpiperazin-1-yl)phenyl]amino}pyrido[2,3-d]pyrimidin-7-yl)-4-isopropyl-1-methylmidazolidin-2-one]"
0.1 to 1,1 to 3,> 3,1 to 10,1 to 3,C#Cc1cc(N2C(=O)N(C)CC23CCCC3)nc2nc(Nc3ccc(OCCN(C)C)cc3)ncc12 [Example 107]
0.02 to 0.1,> 3,1 to 3,> 10,> 3,"C#Cc1cc(N2C(=O)N(C)CC23CCCC3)nc2nc(Nc3ccc(S(C)(=O)=O)cc3)ncc12 [Example 108, 1-{5-Ethynyl-2-[(4-methanesulfonylphenyl)amino]pyrido [2,3-d]pyrimidin-7-yl}-3-methyl-1,3-diazaspiro [4.4]nonan-2-one]"

# More lines, now with the values behind:
Compound,IC50 [1] [µM],IC50 [2] [µM],IC50 [3] [µM],IC50 [4] [µM],IC50 [5] [µM]
"C#Cc1cc(N2C(=O)NC[C@@H]2C(C)C)nc2nc(Nc3ccc(N4CCN(C)CC4)cc3)ncc12 [Example 99, (5S)-1-(5-Ethynyl-2-{[4-(4-methylpiperazin-1-yl)phenyl]amino}pyrido[2,3-d]pyrimidin-7-yl)-5-isopropylmidazolidin-2-one]",< 0.02,< 0.5,> 3,< 1,< 0.5
"C#Cc1cc(N2C(=O)NC[C@H]2C(C)C)nc2nc(Nc3ccc(N4CCN(C)CC4)cc3)ncc12 [Example 100, (5R)-1-(5-Ethynyl-2-{[4-(4-methylpiperazin-1-yl)phenyl]amino}pyrido[2,3-d]pyrimidin-7-yl)-5-isopropylmidazolidin-2-one]",0.1 to 1,1 to 3,> 3,> 10,0.5 to 1
"C#Cc1cc(N2C(=O)N(C)CC23CCCC3)nc2nc(Nc3ccc(N4CCOCC4)cc3)ncc12 [Example 103, 1-(5-Ethynyl-2-{[4-(morpholin-4-yl)phenyl]amino}pyrido[2,3-d]pyrimidin-7-yl)-3-methyl-1,3-diazaspiro[4.4]nonan-2-one]",0.02 to 0.1,< 0.5,1 to 3,< 1,< 0.5
"C#Cc1cc(N2C(=O)N(C)CC23CCCC3)nc2nc(Nc3ccc(N4CCN(C5COC5)CC4)cc3)ncc12 [Example 104, 1-[5-Ethynyl-2-([4-[4-(oxetan-3-yl)piperazin-1-yl]phenyl]amino)pyrido[2,3-d]pyrimidin-7-yl]-3-methyl-1,3-diazaspiro[4.4]nonan-2-one]",0.02 to 0.1,1 to 3,> 3,< 1,1 to 3
"C#Cc1cc(N2C(=O)N(C)CC23CCCC3)nc2nc(Nc3ccc(N(C)C(C)=O)cc3)ncc12 [Example 105, N-{4-[(5-Ethynyl-7-{3-methyl-2-oxo-1,3-diazaspiro[4.4]nonan-1-yl}pyrido[2,3-d]pyrimidin-2-yl)amino]phenyl}-N-methylacetamide]",0.1 to 1,> 3,> 3,> 10,> 3
"C#Cc1cc(N2C(=O)N(C)CC23CCCC3)nc2nc(Nc3ccc(N(C)C(=O)CN(C)C)cc3)ncc12 [Example 106, 2-(Dimethylamino)-N-{4-[(5-ethynyl-7-{3-methyl-2-oxo-1,3-diazaspiro[4.4]nonan-1-yl}pyrido[2,3-d]pyrimidin-2-yl)amino}phenyl]-N-methylacetamide]",0.1 to 1,1 to 3,1 to 3,1 to 10,> 3
